Assay results reported in patent US20120255051A1, “HERBICIDE TOLERANT PLANTS” (priority 2009, published 2012).

Tested on: Brassica plants comprising mutant AHAS alleles
Test: Field trial, pre-planting treatment (0, 10, 20, 30 g a.i./ha), two locations in Canada: ERG, EST1, EST2, PPTOX, VIG1, VIG2, VIG3 scores
Format: in vivo, Brassica napus
Excerpt: Tests were set up and conducted to asses the growth and performance of plants comprising AHAS full knock-out alleles, and to further analyze the correlation between the presence of full knockout and missense AHAS genes in Brassica plants and plant growth and herbicide tolerance of the Brassica plants in the field. To this end, the Brassica plants identified in Example 1 and 2 were backcrossed two times with an elite parent line, and subsequently selfed twice to obtain homozygous plants (BC2S2). Plants were grown as row plots in a split plot design with three replicates (main plots=herbicide treatments, subplots=genotypes) at two locations in Canada. Treatment pre-planting was carried out on the soil about two days before sowing with a dose of 0 (treatment A), 10 (treatment B), 20 (treatment C) or 30 (treatment D) g a.i./ha of thiencarbazone methyl. Herbicide tolerance was measured by scoring for different parameters. The parameter emergence (ERG) was scored at the cotyledon stage on a scale 1-9, where 1 means late emergence and 9 means early emergence. Establishment was scored 14 days after sowing (EST1) and 21 days after sowing (EST2). Scores were from 1 to 9, where 1 is the worst establishment (least plants that emerged), and 9 is the best establishment (most plants emerged). Phytotoxicity (PPTOX) was determined after establishment. Plants were evaluated on a scale of 1 to 9, where 1=completely yellowing, 5=50% of plant is yellow and 9=no yellowing. The vigor scores (see above) were determined at 1-2 leaf stage (VIG1), 7 days after VIG1 (VIG2) and 14 days after VIG1 (VIG3). The average values (Av) and standard deviations (SD) of the scores for the different parameters are represented in Table 7a-g.
Further, the contribution of the knock-out allele to herbicide tolerance conferred by the missense allele was calculated. First, the scores were corrected for a possible effect of the growth per se, independent of herbicide treatment. To this end, the scores for treatments B, C and D were divided by the scores for treatment A for the same genotype and for the same parameter (corrected herbicide tolerance scores). Next, the effect of the knock-out allele to these corrected herbicide tolerance scores obtained by the missense allele was calculated. Therefore, the corrected herbicide tolerance scores for the missense—knock-out allele combination was divided by the corrected herbicide tolerance scores for the missense allele—wild-type combination. In case the knock-out allele has no effect on herbicide tolerance conferred by the missense allele, this ratio should be 1. In case the knock-out allele positively contributes to the herbicide tolerance conferred by the missense allele, this ratio should be higher than 1. The results for the contribution of the knock-out allele to herbicide tolerance conferred by the missense allele as calculated above are shown in table 8.

[1] = AHAS1 HETO112, AHAS3 WT, treatment C 20 g a.i./ha pre-planting, Location A
[2] = AHAS1 HETO112, AHAS3 WT, treatment C 20 g a.i./ha pre-planting, Location B
[3] = AHAS1 HETO112, AHAS3 WT, treatment D 30 g a.i./ha pre-planting, Location A
[4] = AHAS1 HETO112, AHAS3 WT, treatment D 30 g a.i./ha pre-planting, Location B
[5] = AHAS1 HETO112/AHAS3 HETO111, 10 g a.i./ha pre-planting (B), Location A
[6] = AHAS1 HETO112/AHAS3 HETO111, 10 g a.i./ha pre-planting (B), Location B
[7] = AHAS1 HETO112/AHAS3 HETO111, 20 g a.i./ha pre-planting (C), Location A
[8] = AHAS1 HETO112/AHAS3 HETO111, 20 g a.i./ha pre-planting (C), Location B
[9] = AHAS1 HETO112/AHAS3 HETO111, 30 g a.i./ha pre-planting (D), Location A
[10] = AHAS1 HETO112/AHAS3 HETO111, 30 g a.i./ha pre-planting (D), Location B
[11] = AHAS1 HETO112/AHAS3 WT, 10 g a.i./ha pre-planting (B), Location A
[12] = AHAS1 HETO112/AHAS3 WT, 10 g a.i./ha pre-planting (B), Location B
[13] = AHAS1 HETO112/AHAS3 WT, 20 g a.i./ha pre-planting (C), Location A
[14] = AHAS1 HETO112/AHAS3 WT, 20 g a.i./ha pre-planting (C), Location B
[15] = AHAS1 HETO112/AHAS3 WT, 30 g a.i./ha pre-planting (D), Location A
[16] = AHAS1 HETO112/AHAS3 WT, 30 g a.i./ha pre-planting (D), Location B
[17] = AHAS1 WT, AHAS3 HETO104, treatment B 10 g a.i./ha pre-planting, Location A
[18] = AHAS1 WT, AHAS3 HETO104, treatment B 10 g a.i./ha pre-planting, Location B
[19] = AHAS1 WT, AHAS3 HETO104, treatment C 20 g a.i./ha pre-planting, Location A
[20] = AHAS1 WT, AHAS3 HETO104, treatment C 20 g a.i./ha pre-planting, Location B
[21] = AHAS1 WT, AHAS3 HETO104, treatment D 30 g a.i./ha pre-planting, Location A
[22] = AHAS1 WT, AHAS3 HETO104, treatment D 30 g a.i./ha pre-planting, Location B

With `COC(=O)c1csc(C)c1S(=O)(=O)NC(=O)n1nc(OC)n(C)c1=O` [thiencarbazone-methyl, methyl 4-[(4,5-dihydro-3-methoxy-4-methyl-5-oxo-1H-1,2,4-triazol-1-yl)carbonylsulfamoyl]-5-methylthiophene-3-carboxylate] the “establishment (EST1) score Av, 14 days after sowing” value (“establishment (EST1) score Av” below) (AHAS1 HETO112, AHAS3 WT, treatment B 10 g a.i./ha pre-planting, Location B) was 2.33, the “emergence (ERG) score Av” value [1] was 1.00 and the “establishment (EST1) score Av” value [1] was 1.00. For the same molecule, the “emergence (ERG) score Av” value [2] was 1.00, the “establishment (EST1) score Av” value [2] was 1.33 and the “emergence (ERG) score Av” value [3] was 1.00. The “establishment (EST1) score Av” value [3] was 1.00, the “emergence (ERG) score Av” value [4] was 1.00 and the “establishment (EST1) score Av” value [4] was 1.00. The “establishment (EST2) score, Av” value [5] was 5.67, the “vigor1 (VIG1) score, Av” value [5] was 6.33 and the “vigor2 (VIG2) score, Av” value [5] was 7.33. For the same molecule, the “establishment (EST2) score, Av” value [6] was 5.67, the “vigor2 (VIG2) score, Av” value [6] was 6.67 and the “establishment (EST2) score, Av” value [7] was 5.33. The “vigor2 (VIG2) score, Av” value [7] was 6.33, the “establishment (EST2) score, Av” value [8] was 5.00 and the “vigor2 (VIG2) score, Av” value [8] was 5.33. The “establishment (EST2) score, Av” value [9] was 5.67, the “vigor2 (VIG2) score, Av” value [9] was 6.67 and the “establishment (EST2) score, Av” value [10] was 3.67. For the same molecule, the “vigor1 (VIG1) score, Av” value [10] was 4.00, the “vigor2 (VIG2) score, Av” value [10] was 5.33 and the “establishment (EST2) score, Av” value [11] was 1.67. For the same molecule, the “phytotoxicity (PPTOX) score, Av” value [11] was 1.00, the “vigor1 (VIG1) score, Av” value [11] was 1.00 and the “vigor2 (VIG2) score, Av” value [11] was 1.00. The “establishment (EST2) score, Av” value [12] was 2.67, the “phytotoxicity (PPTOX) score, Av” value [12] was 1.00 and the “vigor1 (VIG1) score, Av” value [12] was 1.33. For the same molecule, the “vigor2 (VIG2) score, Av” value [12] was 1.00, the “establishment (EST2) score, Av” value [13] was 1.00 and the “phytotoxicity (PPTOX) score, Av” value [13] was 1.00. For the same molecule, the “vigor1 (VIG1) score, Av” value [13] was 1.00, the “vigor2 (VIG2) score, Av” value [13] was 1.00 and the “establishment (EST2) score, Av” value [14] was 1.67. For the same molecule, the “phytotoxicity (PPTOX) score, Av” value [14] was 1.00, the “vigor1 (VIG1) score, Av” value [14] was 1.00 and the “vigor2 (VIG2) score, Av” value [14] was 1.00. The “establishment (EST2) score, Av” value [15] was 1.00, the “phytotoxicity (PPTOX) score, Av” value [15] was 1.00 and the “vigor1 (VIG1) score, Av” value [15] was 1.00. For the same molecule, the “vigor2 (VIG2) score, Av” value [15] was 1.00, the “establishment (EST2) score, Av” value [16] was 1.00 and the “phytotoxicity (PPTOX) score, Av” value [16] was 1.00. The “vigor1 (VIG1) score, Av” value [16] was 1.00, the “vigor2 (VIG2) score, Av” value [16] was 1.00 and the “emergence (ERG) score Av” value [17] was 2.00. For the same molecule, the “establishment (EST1) score Av” value [17] was 2.33, the “emergence (ERG) score Av” value [18] was 2.00 and the “establishment (EST1) score Av” value [18] was 3.33. The “emergence (ERG) score Av” value [19] was 1.00, the “establishment (EST1) score Av” value [19] was 1.00 and the “emergence (ERG) score Av” value [20] was 1.33. For the same molecule, the “establishment (EST1) score Av” value [20] was 2.33, the “emergence (ERG) score Av” value [21] was 1.00 and the “establishment (EST1) score Av” value [21] was 1.00. For the same molecule, the “emergence (ERG) score Av” value [22] was 1.00, the “establishment (EST1) score Av” value [22] was 1.00 and the “emergence (ERG) score Av” value (AHAS1 WT, AHAS3 HETO111 (HETO108+HETO111 series), treatment B 10 g a.i./ha pre-planting, Location A) was 5.33.
